In ChEMBL document CHEMBL3351622, “Synthesis and evaluation of 9-deoxy analogues of (-)-thysanone, an inhibitor of HRV 3C protease” (Eur J Med Chem, 2014):

How the values were obtained:
[1] = Inhibition of human rhinovirus 3C protease incubated for 1 hr by solid phase fluorescent assay; set-up: species or system Human rhinovirus sp.
[2] = Inhibition of human rhinovirus 3C protease; set-up: species or system Human rhinovirus sp.

C[C@H]1CC2=C(C(=O)c3c(O)cc(O)cc3C2=O)[C@H](O)O1 showed an IC50 [1] of 51.8 µM and an IC50 [2] of 47 µM.
Compound C[C@H]1CC2=C(C(=O)c3ccc(O)cc3C2=O)[C@H](O)O1 (racemic) has an IC50 [1] of 20.3 µM.
With C[C@H]1CC2=C(CO1)C(=O)c1ccc(O)cc1C2=O (racemic) the IC50 [1] was 30.9 µM.
Compound CC(C)Oc1ccc2c(c1)C(=O)C1=C(CO[C@@H](C)C1)C2=O (racemic) has an IC50 [1] of 35.7 µM.
